Source: publication PMC9574929, “Development of Hydrogen Sulfide-Releasing Carbonic Anhydrases IX- and XII-Selective Inhibitors with Enhanced Antihyperalgesic Action in a Rat Model of Arthritis” (Journal of Medicinal Chemistry, 2022)
“And” between values parts separate entries of the source, which are not always exact repeats. Equal entries are not always repeated.

Legend:
hCA IX [1] = biological target: T1, hCA IX (Homo sapiens, UniProt Q16790); set-up: made in house; method as in Bonardi et al. [29,30]; conditions: stopped-flow CO2 hydrase assay; Table S1 footnote b; ref Bonardi et al. [29,30]; cited from earlier work
hCA II = hCA II (Homo sapiens, UniProt P00918); assay: Stopped-flow CO2 hydrase assay, hCA II; conditions: for SI CA I/II: selectivity index, ratio of KIs
Procedure: (§3) The uncatalyzed rates were determined in the same manner and subtracted from the total observed rates. Stock solutions of inhibitor (0.1 mM) were prepared in distilled-deionized water and dilutions up to 0.01 nM were done thereafter with the assay buffer. […] The inhibition constants were obtained by nonlinear least-squares methods using PRISM 3 and the Cheng–Prusoff equation, as reported earlier,[39] and represent the mean from at least three different determinations.

hCA IV = hCA IV (Homo sapiens, UniProt P22748); assay: Stopped-flow CO2 hydrase assay, hCA IV; conditions: for SI CA II/IV / SI CA I/IV: selectivity index, ratio of KIs
Chain of hCA IV (P22748 19-312): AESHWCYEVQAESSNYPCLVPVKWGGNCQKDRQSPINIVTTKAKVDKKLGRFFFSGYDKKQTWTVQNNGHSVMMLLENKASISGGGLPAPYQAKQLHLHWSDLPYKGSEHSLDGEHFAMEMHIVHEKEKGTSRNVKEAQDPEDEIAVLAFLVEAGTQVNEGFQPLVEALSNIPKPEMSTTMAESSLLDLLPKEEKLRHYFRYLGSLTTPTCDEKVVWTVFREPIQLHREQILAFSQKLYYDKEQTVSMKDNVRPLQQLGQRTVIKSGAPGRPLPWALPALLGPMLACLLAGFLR
Procedure: as §3

hCA IX [2] = biological target: T1, hCA IX; assay: Stopped-flow CO2 hydrase assay, hCA IX; conditions: selectivity index, ratio of KIs
Procedure: as §3

hCA XII = hCA XII (Homo sapiens, UniProt O43570); assay: Stopped-flow CO2 hydrase assay, hCA XII; conditions: for SI CA I/XII / SI CA II/XII: selectivity index, ratio of KIs
Chain of hCA XII (O43570 25-354): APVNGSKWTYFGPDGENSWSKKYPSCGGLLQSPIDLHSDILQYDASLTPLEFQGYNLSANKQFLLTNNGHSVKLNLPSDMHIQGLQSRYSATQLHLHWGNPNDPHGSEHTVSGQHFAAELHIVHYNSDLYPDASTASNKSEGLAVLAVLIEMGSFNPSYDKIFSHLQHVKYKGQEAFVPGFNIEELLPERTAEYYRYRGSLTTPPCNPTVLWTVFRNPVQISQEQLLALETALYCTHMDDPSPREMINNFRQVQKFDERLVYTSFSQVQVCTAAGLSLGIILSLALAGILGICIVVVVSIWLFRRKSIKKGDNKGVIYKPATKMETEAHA
Procedure: as §3

[3] = tested on: rat model of arthritis induced by the intra-articular injection of complete Freund's adjuvant (CFA); assay: Paw pressure test, CFA-induced arthritis; type: in vivo; conditions: for antihyperalgesic effect, Paw pressure test, 1 mg/kg: 1 mg/kg per os; for weight tolerated on the ipsilateral paw, Paw pressure test, 10 and 30 mg/kg: 10 and 30 mg/kg per os, from 15 min up to 45 min after treatment, vs CFA-treated animals
Procedure: (§1) Articular damage was induced by injection of Complete Freund’s Adjuvant (CFA; Sigma-Aldrich, St Louis, MO, USA), containing 1 mg/mL of heat-killed and dried Mycobacterium tuberculosis in paraffin oil and mannide monooleate, into the tibiotarsal joint.[50] Briefly, the rats were lightly anesthetized with 2% isoflurane, the left leg skin was sterilized with 75% ethyl alcohol, and the lateral malleolus was located by palpation. A 28-gauge needle was then inserted vertically to penetrate the skin and turned distally for insertion into the articular cavity at the gap between the tibiofibular and tarsal bone until a distinct loss of resistance was felt. A volume of 50 μL of CFA was then injected (day 0). Control rats received 50 μL of saline solution (day 0) in the tibiotarsal joint.
(§2) The hybrid derivatives 26, 29, 30, and 31 (1, 10, and 30 mg/kg) were suspended in a 1% solution of carboxymethylcellulose (CMC) sodium salt and acutely per os administered starting from day 14 after CFA i.a. injection, when arthritis was well established. The H2S releaser 3 and CAI 15 were also administered alone or in coadministration at the equimolar dose of compound 30 30 mg/kg (13.23 and 17.71 mg/kg, respectively). The antihypersensitivity effects were evaluated over time by the Paw pressure and Incapacitance tests.
The nociceptive threshold of rats was determined with an analgesimeter (Ugo Basile, Varese, Italy), according to the method described by Leighton et al.[51] and Maresca et al.,[52] (doi: 10.1111/jphp.12828). Briefly, a constantly increasing pressure was applied to a small area of the dorsal surface of the hind paw using a blunt conical probe by a mechanical device. Mechanical pressure was increased until vocalization or a withdrawal reflex occurred while rats were lightly restrained. Vocalization or withdrawal reflex thresholds were expressed in grams. […]

[4] = tested on: rat model of arthritis induced by the intra-articular injection of complete Freund's adjuvant (CFA); assay: Incapacitance test, CFA-induced arthritis; type: in vivo; conditions: for reduction of spontaneous pain, Incapacitance test: single per os, 1 to 30 mg/kg, day 14 after CFA
Procedure: as §1, §2
Weight-bearing changes were measured using an incapacitance apparatus (Linton Instrumentation, Norfolk, U.K.) to detect changes in postural equilibrium after a hind limb injury.[53],[54] Rats were trained to stand on their hind paws in a box with an inclined plane (65° from horizontal). This box was placed above the incapacitance apparatus. This allowed us to independently measure the weight that the animal applied on each hind limb. The value reported for each animal is the mean of five consecutive measurements. In the absence of hind limb injury, rats applied an equal weight on both hind limbs, indicating postural equilibrium, whereas an unequal distribution of weight on the hind limbs indicated a monolateral decreased pain threshold. Data are expressed as the difference between the weight applied to the limb contralateral to the injury and the weight applied to the ipsilateral limb (Δ weight).

hCA I = hCA I (Homo sapiens, UniProt P00915); assay: Stopped-flow CO2 hydrase assay, hCA I
Chain of hCA I (P00915 whole entry): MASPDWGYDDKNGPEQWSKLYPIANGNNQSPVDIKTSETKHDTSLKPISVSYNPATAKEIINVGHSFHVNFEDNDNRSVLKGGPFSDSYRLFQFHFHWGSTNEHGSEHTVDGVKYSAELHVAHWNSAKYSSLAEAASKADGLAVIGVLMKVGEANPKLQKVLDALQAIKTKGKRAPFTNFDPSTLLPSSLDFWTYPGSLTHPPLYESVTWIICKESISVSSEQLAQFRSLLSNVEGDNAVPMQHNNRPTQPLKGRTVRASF
Procedure: as §3

rats = assay: Toxicity and Irwin test; type: in vivo, rat; set-up: key to Irwin test: Spontaneous activity / Irwin test: Straightening reflex / Irwin test: Hypo-hyperthermia / Irwin test: Cleaning / Irwin test: Curiosity / Irwin test: Reactivity / Irwin test: Convulsions: observer's semiquantitative score (0 to +4, −4 to 0, or −4 to +4); conditions: 30 mg/kg; for Irwin test: Cyanosis / Irwin test: Exolphthalmos / Irwin test: Flush / Irwin test: Lacrimation / Irwin test: Pallor / Irwin test: Piloerection / Irwin test: Salivation / Irwin test: Writhing / Irwin test: Palpebral opening / Irwin test: Hypo-hyperthermia: Autonomic signes; for Irwin test: Cyanosis / Irwin test: Exolphthalmos / Irwin test: Flush / Irwin test: Lacrimation / Irwin test: Pallor / Irwin test: Piloerection / Irwin test: Salivation / Irwin test: Writhing / Irwin test: Passivity / Irwin test: Vocalization / Irwin test: Ataxia / Irwin test: Stereotipies / Irwin test: Straub tail / Irwin test: Tremors / Irwin test: Delayed death (48 h) / Irwin test: Immediate death: limits 0 - 4; for Irwin test: Palpebral opening / Irwin test: Cleaning / Irwin test: Curiosity / Irwin test: Reactivity / Irwin test: Spontaneous activity / Irwin test: Straightening reflex / Irwin test: Palpebral reflex / Irwin test: Convulsions: limits 4 - 0; for Irwin test: Hypo-hyperthermia: limits -4/+4; for Irwin test: Passivity / Irwin test: Vocalization / Irwin test: Cleaning / Irwin test: Curiosity / Irwin test: Reactivity / Irwin test: Spontaneous activity: Behaviour; for Irwin test: Ataxia / Irwin test: Stereotipies / Irwin test: Straightening reflex: Movement; for Irwin test: Physical strenght: Muscolar tone, limits 4 – 0; for Irwin test: Palpebral reflex: Reflexes; for Irwin test: Straub tail / Irwin test: Tremors / Irwin test: Convulsions: S.N.C. excitement; for Irwin test: Delayed death (48 h) / Irwin test: Immediate death: Toxicity
Procedure: Toxicity was evaluated after a single acute administration of 26, 29, 30, and 31 at 30 mg/kg. […] For the Irwin test, each rat was individually placed in a transparent cage (26 × 41 cm), and 26 neurobehavioral or physiological parameters were systematically assessed according to Irwin (1968)[55] and already reported by Berrino and colleagues in similar studies.[30] Behavioral, autonomic, and neurological manifestations produced by compound administration in rats were evaluated: motor displacement, motor reflexes, stereotypies, grooming, reaction to painful or environmental stimuli (analgesia and irritability), startle response, secretions, excretions, respiratory movements, skin color and temperature, piloerection, exophthalmos, eyelid and corneal reflexes, muscle tone, ataxia, tremors, head twitches, jumps, convulsions, Straub tail, and other signs or symptoms. For postural reflexes (righting reflex) and other signs such as piloerection, exophthalmia (exaggerated protrusion of the eyeball), ataxia, tremors, and Straub tail, only presence or absence was recorded. Skin color was evaluated qualitatively (pale, red, or purple); other signs were evaluated semiquantitatively, according to the observer’s personal scale (0 to +4, −4 to 0, or −4 to +4). The terms sedation and excitation express the final interpretation of a group of signs: reduced motor activity, reduced startle response, eyelid ptosis, and reduced response to manual manipulation, for the former; and increased motor activity, increased startle response, increased response to manual manipulation, and exophthalmia, for the latter. Hyperactivity includes running, jumping, and attempting to escape from the container. Trained observers were not informed about the specific treatment of each animal group carried out in this test.

[5] = per os, 3 13.23 mg/kg, 15 17.71 mg/kg

SMILES	Ki (hCA IX [1])	SI CA I/II (hCA II)	SI CA II/IV (hCA IV)	SI CA I/IX (hCA IX [2])	SI CA I/XII (hCA XII)	SI CA II/XII (hCA XII)	SI CA II/IX (hCA IX [2])	antihyperalgesic effect, Paw pressure test, 1 mg/kg [3]	weight tolerated on the ipsilateral paw, Paw pressure test, 10 and 30 mg/kg [3]	reduction of spontaneous pain, Incapacitance test [4]	Irwin test: Cyanosis (rats)	Irwin test: Exolphthalmos (rats)	Irwin test: Flush (rats)	Irwin test: Lacrimation (rats)	Irwin test: Pallor (rats)	Irwin test: Piloerection (rats)	Irwin test: Salivation (rats)	Irwin test: Writhing (rats)	Irwin test: Palpebral opening (rats)	Irwin test: Hypo-hyperthermia (rats)	also measured
NS(=O)(=O)c1ccc(CCNCCc2ccccc2)cc1 [Compound 17, 4-(2-(Phenethylamino)ethyl)benzenesulfonamide]	102 nM	3.1	0.02	2.7	2.6	0.9															
NS(=O)(=O)c1ccc(CCNCc2cccc3ccccc23)cc1 [Compound 15, 4-(2-((Naphthalen-1-ylmethyl)amino)ethyl)benzenesulfonamide]		1.5	0.06	5.8	4.8	3.2	4.0														antihyperalgesic effect, Paw pressure test, dose equimolar to 30 30 mg/kg [3, 5]: very weak antihyperalgesic action; antihyperalgesic effect, Incapacitance test, dose equimolar to 30 30 mg/kg [4, 5]: absence of effects detected in vivo; Ki (hCA I): 261 nM; Ki (hCA II): 178 nM; Ki (hCA IV): 3010 nM; Ki (hCA XII): 54.7 nM
NS(=O)(=O)c1ccc(CCN(Cc2csc3ccccc23)C(=O)c2ccc(-c3cssc3=S)cc2)cc1 [Compound 31, N-(Benzo[b]thiophen-3-ylmethyl)-N-(4-sulfamoylphenethyl)-4-(3-thioxo-3H-1,2-dithiol-4-yl)benzamide]			52 and 51.7	>4167	>1204	299		ineffective	significantly increased the weight tolerated	reduced spontaneous pain in a dose-dependent manner	0	0	0	0	0	0	0	0	4	0	Irwin test: Passivity (rats): 0; Irwin test: Vocalization (rats): 0; Irwin test: Cleaning (rats): 0; Irwin test: Curiosity (rats): 4; Irwin test: Reactivity (rats): 4; Irwin test: Spontaneous activity (rats): 4; Irwin test: Ataxia (rats): 0; Irwin test: Stereotipies (rats): 0; Irwin test: Straightening reflex (rats): 4; Irwin test: Physical strenght (rats): 4; Irwin test: Palpebral reflex (rats): 4; Irwin test: Straub tail (rats): 0; Irwin test: Tremors (rats): 0; Irwin test: Convulsions (rats): 0; Irwin test: Delayed death (48 h) (rats): 0; Irwin test: Immediate death (rats): 0; SI CA I/IV (hCA IV): >208
NS(=O)(=O)c1ccc(CCN(Cc2cccc3ccccc23)C(=O)c2ccc(-c3cssc3=S)cc2)cc1 [Compound 30, N-(Naphthalen-1-ylmethyl)-N-(4-sulfamoylphenethyl)-4-(3-thioxo-3H-1,2-dithiol-4-yl)benzamide]			18.3	>641	>1428	637	286	ineffective	significantly increased the weight tolerated	slightly greater efficacy at 10 mg/kg in comparison to the dose of 30 mg/kg	0	0	0	0	0	0	0	0	4	0	antihyperalgesic effect, Paw pressure test, 30 mg/kg ([3]; 30 mg/kg per os, day 14 after CFA): greater antihyperalgesic action with respect to 3, 15, and their co-administration; effect of the lowest dose, Incapacitance test ([4]; 1 mg/kg per os): ineffective; Irwin test: Passivity (rats): 0; Irwin test: Vocalization (rats): 0; Irwin test: Cleaning (rats): 0; Irwin test: Curiosity (rats): 4; Irwin test: Reactivity (rats): 4; Irwin test: Spontaneous activity (rats): 4; Irwin test: Ataxia (rats): 0; Irwin test: Stereotipies (rats): 0; Irwin test: Straightening reflex (rats): 4; Irwin test: Physical strenght (rats): 4; Irwin test: Palpebral reflex (rats): 4; Irwin test: Straub tail (rats): 0; Irwin test: Tremors (rats): 0; Irwin test: Convulsions (rats): 0; Irwin test: Delayed death (48 h) (rats): 0; Irwin test: Immediate death (rats): 0; SI CA I/IV (hCA IV): >41.0
NS(=O)(=O)c1ccc(CCNCc2ccccc2)cc1 [Compound 4, 4-(2-(Benzylamino)ethyl)benzenesulfonamide]	78.1 nM																				
